Patent US20150246908A1, “KLF5 MODULATORS” (The Scripps Research Institute, priority 2012, published 2015)
In brackets after ≈: the same amount, converted by molar mass. Entries after “also recorded” stand apart in the source; their conditions may differ. Where two headings read alike, the source gives them in different places.

Experiments:
human KLF5 promoter = test: KLF5 promoter luciferase assay in DLD-1/pGL4.18KLF5p cell line; assay type: cell-based; conditions: measuring luciferase activity
DLD-1 cell line = test: DLD-1 cell viability; assay type: cell-based; conditions: for EC50: cell viability, footnote calls it IC50 cell viability
HT29 (colon) = test: Tumor cell line potency, HT29; assay type: cell-based
SW-620 (colon) = test: Tumor cell line potency, SW-620; assay type: cell-based
HCT-116 (colon) = test: Tumor cell line potency, HCT-116; assay type: cell-based
[1] = system: colon cancer cell line KM12; test: NCI60 cytotoxicity, KM12; assay type: cell-based; conditions: KM12, high KLF5 mRNA level
From the text: (§1) Moreover, cytotoxicity in general trends with KLF5 levels in the tumor types. […] Only the colon cancer cell line KM12, the ovarian cancer line IGROV1, and the non-small cell lung cancer line NCI-H322M are the NCI60 cell lines high with respect to KLF5 mRNA levels that are ML264-insensitive.

[2] = system: ovarian cancer line IGROV1; test: NCI60 cytotoxicity, IGROV1; assay type: cell-based; conditions: IGROV1, high KLF5 mRNA level
From the text: as §1

[3] = system: non-small cell lung cancer line NCI-H322M; test: NCI60 cytotoxicity, NCI-H322M; assay type: cell-based; conditions: high KLF5 mRNA level
From the text: as §1

47 kinases = test: Off-target activity vs. 47 kinases; assay type: biochemical
[4] = system: 67 protein targets of therapeutic and/or toxicological interest (GPCRs, ion channels, enzymes, etc.); test: Off-target activity vs. 67 protein targets
KLF5 protein = KLF5 protein levels by Western blot in colon cancer cell lines; assay type: cell-based
From the text: The chemical structure of this compound is described using Formula (I) in which R^1=(E)-2-(3-chlorophenyl)ethenyl, R^2═H, R^3=4-tetrahydro-2H-thiopyran 1,1-dioxide, R^4=Me, X═NH, Y=absent).

[5] = Solubility measured at Scripps; assay type: physicochemical; conditions: aqueous buffer
Stability in PBS = assay type: physicochemical; conditions: read-out: Stability (t1/2) in PBS
[6] = Michael acceptor test, incubation with GSH, LCMS; assay type: physicochemical; conditions: by LCMS after incubation with 100 μM GSH
[7] = Homo sapiens, DLD-1, DlD-1 4.9 cell line

Row | IC50 (human KLF5 promoter; [7]) | Compound | other results
1 | > 100 µM | Cc1ccc(C2(C(=O)NCC(=O)N(C)C3CCS(=O)(=O)CC3)CC2)cc1 [Compound 34] | 
2 |  | O=C(/C=C/c1cccc(Cl)c1)NCC(=O)N(C1CC1)C1CCS(=O)(=O)CC1 [Compound 52] | IC50 (human KLF5 promoter; DlD-1 4.9 cell line): > 100 µM
3 | > 100 µM | CN(C(=O)CNC(=O)c1coc2ccccc2c1=O)C1CCS(=O)(=O)CC1 [Compound 45] | 
4 | > 100 µM | CN(C(=O)CNS(=O)(=O)c1cccc2ccccc12)C1CCS(=O)(=O)CC1 [Compound 35] | 
5 | > 100 µM | O=C(/C=C/c1cccc(Cl)c1)NCC(=O)NC1CCS(=O)(=O)CC1 [Compound 26] | 
6 | > 100 µM | CN(C(=O)CNC(=O)c1cnc2ccc(Cl)cc2c1)C1CCS(=O)(=O)CC1 [Compound 48] | 
7 | > 100 µM | C[C@@H](NC(=O)/C=C/c1cccc(Cl)c1)C(=O)NC1CCS(=O)(=O)CC1 [Compound 31] | 
8 | > 100 µM | C[C@@H](NC(=O)/C=C/c1cccc(Cl)c1)C(=O)NC1CCS(=O)(=O)C1 (stereo partly shown) [Compound 27] | 
9 | > 100 µM | COc1cccc(CNC(=O)NCC(=O)N(C)C2CCS(=O)(=O)CC2)c1 [Compound 50] | 
10 | > 100 µM | CN(C(=O)CNC(=O)/C=C/c1cccc(S(=O)(=O)N(C)C)c1)C1CCS(=O)(=O)C1 (stereo not shown) [Compound 25] | 
11 | > 100 µM | CN(C(=O)CNC(=O)c1ccsc1)C1CCS(=O)(=O)CC1 [Compound 49] | 
12 | > 100 µM | C[C@@H](NC(=O)/C=C/c1cccc(Cl)c1)C(=O)N(C)C1CCS(=O)(=O)CC1 [Compound 24] | 
13 | > 100 µM | CN(C(=O)CNC(=O)C1CCc2ccccc2O1)C1CCS(=O)(=O)CC1 (stereo not shown) [Compound 44] | 
14 | > 100 µM | COc1ccc(CC(=O)NCC(=O)N(C)C2CCS(=O)(=O)CC2)cc1 [Compound 43] | 
15 | > 100 µM | CN(C(=O)CNC(=O)c1ccc2ccccc2n1)C1CCS(=O)(=O)CC1 [Compound 39] | 
16 | > 100 µM | CN(C(=O)CNC(=O)c1cccc2c1OCCO2)C1CCS(=O)(=O)CC1 [Compound 32] | 

Row | IC50 (human KLF5 promoter; [7]) | Compound | other results
17 | > 100 µM | CN(C(=O)CNC(=O)c1ccnn1-c1ccccc1)C1CCS(=O)(=O)CC1 [Compound 41] | 
18 | > 100 µM | CN(C(=O)CNC(=O)Nc1ccc(Br)cc1Br)C1CCS(=O)(=O)CC1 [Compound 36] | 
19 | > 100 µM | O=C(/C=C/c1cccc(Cl)c1)NCCC(=O)NC1CCS(=O)(=O)C1 (stereo not shown) [Compound 28] | 
20 | 0.27 µM | CN(C(=O)COC(=O)/C=C/c1cccc([N+](=O)[O-])c1)C1CCS(=O)(=O)C1 (stereo not shown) [Compound 53C, reference compound] | EC50 (DLD-1 cell line; Homo sapiens): 1.51 µM
21 | > 100 µM | CN(C(=O)CNC(=O)c1ccc2ncsc2c1)C1CCS(=O)(=O)CC1 [Compound 47] | 
22 |  | CN(C(=O)CNC(=O)/C=C/c1cccc(Cl)c1)C1CCS(=O)(=O)CC1 [Compound 1, (E)-3-(3-chlorophenyl)-N-(2-((1,1-dioxidotetrahydro-2H-thiopyran-4-yl)(methyl)amino)-2-oxoethyl)acrylamide] | maximal effect on DLD-1 viability (DLD-1 cell line): > 90%; IC50 (DLD-1 cell line; Homo sapiens, DLD1 (colon), viability): 0.029 µM; EC50 (DLD-1 cell line; Homo sapiens): 0.022 µM; effect on cell type (HT29 (colon); HT29, submicromolar doses): significant effects at submicromolar doses; IC50 (HT29 (colon); Homo sapiens, HT-29, HT29 (colon)): 0.13 µM; IC50 (SW-620 (colon); Homo sapiens, SW-620 (colon)): 0.43 µM; effect on cell type (SW-620 (colon); SW620, submicromolar doses): significant effects at submicromolar doses; effect on cell type (HCT-116 (colon); HCT116, submicromolar doses): significant effects at submicromolar doses; IC50 (HCT-116 (colon); Homo sapiens, HCT-116 (colon)): 0.56 µM; sensitivity to cytotoxicity [1]: ML264-insensitive; sensitivity to cytotoxicity [2]: ML264-insensitive; sensitivity to cytotoxicity [3]: ML264-insensitive; off-target activity vs. 47 kinases (47 kinases): inactive; inhibition at 10 μM vs. 67 protein targets [4]: < 50%; effect on KLF5 protein levels (KLF5 protein; listed as ML264): significantly reduces KLF5 protein levels; also recorded: lowers KLF5 protein levels; solubility ([5]; PBS, read-out: Solubility in PBS): 18.7 µM (≈ 7.2 µg/mL); solubility ([5]; assay buffer, read-out: Solubility in assay buffer): 35 µM (≈ 13.5 µg/mL); half-life (Stability in PBS): > 48 h; Michael acceptor [6]: Michael acceptor: No
23 | > 100 µM | CN(C(=O)CNC(=O)c1ccc2cc[nH]c2c1)C1CCS(=O)(=O)CC1 [Compound 46] | 
24 | > 100 µM | C[C@@H](NC(=O)/C=C/c1cccc(Cl)c1)C(=O)N(C)C1CCS(=O)(=O)C1 (stereo partly shown) [Compound 30] | 
25 |  | CN(C(=O)COC(=O)/C=C/c1cccc([N+](=O)[O-])c1)C1CCS(=O)(=O)C1 (stereo not shown) [CID 5951923] | effect on KLF5 protein levels (KLF5 protein): lesser effects on KLF5 expression than ML264
26 | > 100 µM | CN(C(=O)CNC(=O)COCc1ccccc1)C1CCS(=O)(=O)CC1 [Compound 42] | 
27 | > 100 µM | CN(C(=O)CNC(=O)Cc1ccc2c(c1)OCO2)C1CCS(=O)(=O)CC1 [Compound 40] | 
28 | > 100 µM | CN(C(=O)CCNC(=O)/C=C/c1cccc(Cl)c1)C1CCS(=O)(=O)C1 (stereo not shown) [Compound 29] | 
29 |  | O=C(/C=C/c1cccc(Cl)c1)NCC(=O)N(C1CC1)C1CCS(=O)(=O)CC1 [Compound 54] | IC50 (human KLF5 promoter; DlD-1 4.9 cell line): 7.8 µM; EC50 (DLD-1 cell line; Homo sapiens): 0.39 µM
30 | > 100 µM | CN(C(=O)CNC(=O)c1cc2ccccc2o1)C1CCS(=O)(=O)CC1 [Compound 38] | 
31 | > 100 µM | CN(C(=O)CNC(=O)c1cc2cc(Cl)ccc2[nH]1)C1CCS(=O)(=O)CC1 [Compound 33] | 
32 |  | CN(C(=O)CNC(=O)/C=C/c1cccc([N+](=O)[O-])c1)C1CCS(=O)(=O)C1 (stereo not shown) [CID46931037] | effect on KLF5 protein levels (KLF5 protein): lesser effects on KLF5 expression than ML264
